Experimental data from patent US20130101628A1 (NORTHWESTERN UNIVERSITY, priority 2011, published 2013).
* marks the point of attachment. Palmitoyl = CCCCCCCCCCCCCCCC(=O)*

Assays:
[1] = molecular target: T1, VEGF receptor 2 (VEGFR2 or KDR) (Homo sapiens, UniProt P35968); test: Sandwich ELISA of phosphorylated VEGFR2 in lysates of stimulated HUVEC; format: cell-based; conditions: HUVEC, 1 μM, 2 minutes exposure; untreated control 1.000±0.109
T1 construct: host or cells: HUVEC
Protocol: Human umbilical vein endothelial cells (HUVECs) and complete endothelial cell growth media (EGM) were purchased (Genlantis, San Diego, Calif.), passaged two times following receipt, and cryo-preserved in media with 5% DMSO. Cells were thawed as needed and grown to confluence in a […] flasks (VWR Falcon) prior to plating for experiments.
Phosphorylation of both VEGFRI and VEGFR2 was assayed using commercially available assay kit (R&D Systems, Minneapolis, Minn.) following the recommended protocol. First, confluent HUVECs plated in 24 well plates were starved for 5 hours in serum-free defined media (SFDM, Genlantis) specifically designed to maintain cells in a growth factor-free setting for growth factor signaling and metabolic assays. Following starvation, the various treatments were dissolved in SFDM to a concentration of 1 μM. […] Cells were exposed to treatment for 2 minutes. To evaluate the time-course of phosphorylation the same protocol was followed and cells were exposed to VEGF-PA for 0, 1, 3, 5, 10, 15, 20, 25, 30, 40, 50, and 60 minutes.

[2] = system: chicken chorioallantoic membrane (CAM); test: Shell-less chicken chorioallantoic membrane (CAM) angiogenesis assay; format: in vivo; conditions: 2 mM in PBS dried on coverslip, three days following treatment; saline 132%
Excerpt: An established assay reflecting in vivo angiogenesis, the chicken chorioallantoic membrane (CAM) assay, was used to evaluate the angiogenic potential of the VEGF-PA of the present examples. This assay utilizes the extra-embryonic allantois, a tissue derived from the mesoderm that develops into a densely vascularized membrane. A common deviation from the traditional assay is to remove the shell and conduct the assay on a shell-less embryo, termed the shell-less CAM assay, as we have performed here. Fertilized white leghorn chicken eggs (Phil's Fresh Eggs, Forreston, Ill.) were received and cultured in a temperature controlled, humidified egg incubator. On embryonic day 3, eggs were cracked within a sterile tissue culture hood into round 100 mm petri dishes. Fertilized embryos were then transferred to a water-jacketed CO2 incubator, set to 37.5° C., 1% CO2 and 100% relative humidity. On embryonic day 10, the material treatment was dissolved at 2 mM in PBS, evaporated onto the surface of a 5 mm round glass cover slip, and placed facing down on top of the CAM (n=16/group). Digital images were captured through the eyepiece of a Nikon stereomicroscope and vessel density was quantified by the number of intersections of vessel structures with the edge of the cover slip and expressed relative to the initial time-point. Images were captured daily, beginning at embryonic day 10 and culminating on embryonic day 13, the standard range over which the CAM assay is performed. Additionally, images were assessed qualitatively for morphological differences in the CAM vasculature including spoking, branching and leakage.

HUVECs [3] = test: HUVEC migration scratch assay; format: cell-based, human; conditions: 1 μM in EBM with 0.5% FBS, 18 hours; untreated 25.2%
Protocol: To evaluate cell migration, endothelial basal media (EBM) without growth factors (Lonza) was supplemented with 0.5% FBS in order to prevent apoptosis but not promote significant migration or proliferation. Cells were grown to confluence in a 12 well plate and a 1 ml pipette tip was used to create a denuded scratch and the surface was washed twice with PBS to remove detached cells. The average scratch width at the initial time-point was […] Markings were placed on the underside of the plate to ensure the same region of the scratch was recorded in each image. […] The total pixel area of the scratch at the initial time-point was recorded using ImageJ analysis software, and the percent migration was determined from the reduction in denuded area at 18 hours.

ischemic hind-limb = test: Murine hind-limb ischemia (HLI) model; format: in vivo, mice; conditions: for limb motor function score / tissue (limb) salvage score: single i.m. injection 25 μl of 2 mM; for limb motor function score: grade 1-5; for tissue (limb) salvage score: grade 1-6; for Rota Rod walking time prior to failure: saline 90.4 seconds; for number of CD31+ capillaries in ischemic limb muscle: tissue harvested at day 28, saline 893/mm2
Protocol: For the HLI procedure, eight week old male FVB wild-type mice (Charles River) were anesthetized by intraperitoneal injection of avertin (125 mg/kg). By means of a dissecting microscope, the femoral nerve was carefully separated from the vessel bundle. The right femoral artery was ligated and excised, including all superficial and deep branches. Critical limb ischemia was immediately verified by laser Doppler imaging (LDPI, MoorLDI-SIM, Moor Instruments, Ltd) to ensure the ratio (ischemic/non-ischemic limb) was ≦0.20. At postoperative day 3, outliers with low ischemia were triaged based on LDPI (ratio ischemic/nonischemic 0.30) as were outliers with extreme ischemia (necrotic demarcation of entire limb), determined by macroscopic evaluation. […] For follow-up, animals underwent reevaluations with LDPI at postoperative day 7, 14, and 28 before animals were sacrificed (CO, asphyxia) for tissue harvest at day 28. At each time-point, tissue perfusion was measured via LDPI, measuring blood flow in both the ischemic and non-ischemic limb and reporting results as the ratio of these two measurements. All LDPI measurements were taken on a 37° C. heating pad to control body temperature. In addition, motor function and tissue damage was semi-quantitatively assessed on post-operative day 7, 14, 21 and 28 by established scoring systems. Tissue damage in the ischemic limb (limb salvage score) was graded as full recovery (grade 6), minor necrosis or nail loss (grade 5), partial toe amputation (grade 4), total toe amputation (grade 3), partial/total foot amputation (grade 2) or partial/total limb amputation (grade 1) (modified from). Limb motor function was graded as unrestricted (grade 5), no active use of toe(s) or spreading (grade 4), restricted foot use (grade 3), no use of foot (grade 2) or no use of limb at all (grade 1) (modified from). Finally, walking capacity was measured via a Rota Rod apparatus. […] The mean of two assessments was used as for failure time for each animal. At day 28, muscle tissue from the ischemic limb was harvested, fixed in methanol, paraffin-embedded, and cross-sectioned (6-μm) for histological immunostaining. Briefly, sections were blocked with 10% donkey serum (30 min, RT). Primary antibodies were diluted in PBS containing BSA, and applied to tissue slices for 2 hrs at 37° C. Sections were stained for CD31, an endothelial-specific marker, using rat anti-CD31 antibodies (BD Pharmingen Inc) and smooth-muscle α-actin (αSMA), a vascular smooth muscle marker, using rabbit-anti-αSMA (Sigma-Aldrich Co.). For immunofluorescent detection, primary antibodies were resolved with Alexa-Fluor-conjugated secondary antibodies (Invitrogen Corporation, Carlsbad, Calif., USA dilution) and nuclei were counterstained with DAPI (Research Organics). Slides were imaged using fluorescent microscopy (Zeiss), and CD31+capillary forms and CD31+/sMA+]mature microvessels/arterioles were quantified in 3 separate high-power fields (20×) from 3 independent sections in each animal (9 images/animal). All error bars indicate the standard error of the mean. Differences between groups were determined using a one-way analysis of variance (ANOVA) with a Bonferroni multiple comparisons post-hoc test using GraphPad InStat v3.0b. […] VEGF-PA or control treatments were administered by an intramuscular injection three days following the induction of critical ischemia by ligation and excision of the right femoral artery and all superficial and deep branches, as described above. Animals were assessed serially throughout the study for motor function and limb salvage and Laser Doppler perfusion imaging (LDPI) was used to assess tissue perfusion. At the end of the study, exercise endurance was recorded on a Rota Rod treadmill and tissue was harvested for immunohistological staining of capillaries to observe effects on the microcirculation.

HUVECs [4] = test: HUVEC survival after serum-starvation (Annexin V-PE apoptosis); format: cell-based, human; conditions: 1 μM in EBM, serum-starvation 24 hours; untreated 31.7%
Protocol: To evaluate cell survival, endothelial basal media (EBM) without growth factors (Lonza) was used to induce a serum-starvation. Cells were plated in 12 well plates and grown to confluence with standard growth media. […] Cells were grown in these conditions for 24 hours. Survival was quantified using Annexin V: PE staining with 7-AAD vital staining (BD Biosciences) following provided assay instructions and analyzed on a DakoCytomation CyAn. Survival was assessed by determining the fraction of cells that were apoptotic (Annexin V-PE positive).

HUVECs [5] = test: HUVEC proliferation (CyQUANT-NF cell number); format: cell-based, human; conditions: 1 μM in EGM, 48 hours; untreated control 100.0%
Protocol: In vitro studies were performed using HUVECs, a primary endothelial cell that is VEGF-responsive and frequently used as a model endothelial cell for angiogenesis studies in vitro [31].
To evaluate proliferation, HUVECs were plated at 5000 per well in a 96 well plate. […] Additionally, unsupplemented growth media was used as a control. After 48 hours, cell number was quantified using CyQUANT-NF (Invitrogen) and a standard fluorescent microplate reader. Cell number is expressed relative to the group treated with unsupplemented growth media.

VEGF receptor 1 = VEGF receptor 1 (human, UniProt P17948 27-1338); test: cell-based or functional assay
[6] = 14 days after induction of ischemia

Sequence of VEGF receptor 1 (P17948 27-1338): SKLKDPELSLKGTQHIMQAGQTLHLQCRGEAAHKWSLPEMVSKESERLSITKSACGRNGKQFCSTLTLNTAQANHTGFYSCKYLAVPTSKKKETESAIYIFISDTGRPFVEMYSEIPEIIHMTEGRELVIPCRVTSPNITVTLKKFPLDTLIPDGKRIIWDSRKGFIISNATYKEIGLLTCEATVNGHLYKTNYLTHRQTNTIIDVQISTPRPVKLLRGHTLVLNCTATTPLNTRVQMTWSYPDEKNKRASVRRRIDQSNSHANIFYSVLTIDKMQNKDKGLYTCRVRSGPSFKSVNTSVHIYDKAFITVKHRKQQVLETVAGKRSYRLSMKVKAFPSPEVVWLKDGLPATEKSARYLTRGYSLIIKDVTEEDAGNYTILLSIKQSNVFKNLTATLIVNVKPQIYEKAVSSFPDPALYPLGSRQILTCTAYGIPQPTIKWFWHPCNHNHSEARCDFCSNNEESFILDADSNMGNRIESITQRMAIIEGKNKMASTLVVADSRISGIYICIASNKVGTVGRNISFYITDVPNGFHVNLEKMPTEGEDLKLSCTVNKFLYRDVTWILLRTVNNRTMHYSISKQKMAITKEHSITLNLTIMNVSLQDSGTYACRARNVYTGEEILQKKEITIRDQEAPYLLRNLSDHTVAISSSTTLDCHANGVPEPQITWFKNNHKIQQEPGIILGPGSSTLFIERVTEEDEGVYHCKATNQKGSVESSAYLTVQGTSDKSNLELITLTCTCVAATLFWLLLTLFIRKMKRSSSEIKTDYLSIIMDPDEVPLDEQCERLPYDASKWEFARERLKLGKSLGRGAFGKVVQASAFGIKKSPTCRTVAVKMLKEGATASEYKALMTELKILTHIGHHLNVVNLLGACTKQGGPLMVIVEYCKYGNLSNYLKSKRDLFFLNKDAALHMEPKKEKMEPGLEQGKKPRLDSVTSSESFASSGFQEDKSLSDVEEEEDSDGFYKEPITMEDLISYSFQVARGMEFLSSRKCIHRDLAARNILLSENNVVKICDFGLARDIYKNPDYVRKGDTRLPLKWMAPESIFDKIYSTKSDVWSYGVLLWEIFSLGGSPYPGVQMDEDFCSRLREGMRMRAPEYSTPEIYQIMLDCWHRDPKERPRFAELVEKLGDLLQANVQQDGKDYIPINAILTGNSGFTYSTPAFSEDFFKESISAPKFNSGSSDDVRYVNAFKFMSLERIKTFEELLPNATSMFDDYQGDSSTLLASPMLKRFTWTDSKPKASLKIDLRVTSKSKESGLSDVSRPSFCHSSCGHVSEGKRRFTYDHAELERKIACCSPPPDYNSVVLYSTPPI
T1 sequence (P35968 20-1356): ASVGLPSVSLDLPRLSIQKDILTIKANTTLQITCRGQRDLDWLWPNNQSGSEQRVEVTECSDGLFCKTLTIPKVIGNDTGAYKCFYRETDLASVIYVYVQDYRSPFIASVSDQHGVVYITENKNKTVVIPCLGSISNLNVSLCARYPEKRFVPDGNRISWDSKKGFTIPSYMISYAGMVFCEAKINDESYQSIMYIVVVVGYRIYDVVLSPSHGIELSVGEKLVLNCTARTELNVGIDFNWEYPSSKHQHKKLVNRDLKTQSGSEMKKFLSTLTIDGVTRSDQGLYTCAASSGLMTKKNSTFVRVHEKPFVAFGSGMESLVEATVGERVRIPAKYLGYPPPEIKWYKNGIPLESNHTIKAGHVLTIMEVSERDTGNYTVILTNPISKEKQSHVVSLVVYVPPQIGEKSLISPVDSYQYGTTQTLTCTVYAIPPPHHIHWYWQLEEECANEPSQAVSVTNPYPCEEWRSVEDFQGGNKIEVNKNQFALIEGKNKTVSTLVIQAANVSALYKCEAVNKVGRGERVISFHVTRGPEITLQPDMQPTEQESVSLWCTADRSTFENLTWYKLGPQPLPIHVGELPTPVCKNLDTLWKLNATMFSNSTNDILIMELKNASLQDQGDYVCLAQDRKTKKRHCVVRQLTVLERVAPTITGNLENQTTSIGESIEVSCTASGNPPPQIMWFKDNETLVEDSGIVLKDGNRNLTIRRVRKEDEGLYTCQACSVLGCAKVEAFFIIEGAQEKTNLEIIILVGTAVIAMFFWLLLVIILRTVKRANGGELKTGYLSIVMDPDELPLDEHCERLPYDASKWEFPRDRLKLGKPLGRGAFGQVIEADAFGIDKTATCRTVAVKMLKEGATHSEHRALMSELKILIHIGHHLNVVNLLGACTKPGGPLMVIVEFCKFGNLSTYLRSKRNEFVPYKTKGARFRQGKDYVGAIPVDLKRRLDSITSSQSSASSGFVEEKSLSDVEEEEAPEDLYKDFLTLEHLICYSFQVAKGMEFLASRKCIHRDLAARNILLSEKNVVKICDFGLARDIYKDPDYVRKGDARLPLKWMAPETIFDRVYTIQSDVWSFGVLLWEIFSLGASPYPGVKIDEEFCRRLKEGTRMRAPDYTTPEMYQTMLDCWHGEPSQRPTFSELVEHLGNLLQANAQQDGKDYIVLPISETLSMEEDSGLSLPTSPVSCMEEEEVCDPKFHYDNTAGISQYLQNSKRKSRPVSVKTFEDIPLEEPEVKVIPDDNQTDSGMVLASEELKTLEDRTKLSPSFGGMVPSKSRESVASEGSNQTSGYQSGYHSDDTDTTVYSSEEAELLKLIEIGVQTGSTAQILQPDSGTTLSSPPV

Ac-KLTWQELYQLKYKGI-NH2 [VEGF peptide]
VEGFR2 phosphorylation level relative to untreated control [1]: 1.343±0.050 | blood vessels relative to the initial value [2]: 139%±11% | reduction in scratch wound size (denuded area) (HUVECs [3]): 52.5%±4.1% | LDPI perfusion ratio (ischemic/non-ischemic limb) (ischemic hind-limb; [6]): 0.54±0.06 | limb motor function score (ischemic hind-limb; day 21): 3.41±0.21 | tissue (limb) salvage score (ischemic hind-limb; day 21): 3.45±0.25 | LDPI perfusion ratio (ischemic/non-ischemic limb) (ischemic hind-limb; day 28): 0.52±0.06 | Rota Rod walking time prior to failure (ischemic hind-limb; day 28): 115.6 ± 10.9 s | limb motor function score (ischemic hind-limb; day 28): 3.50±0.17 | tissue (limb) salvage score (ischemic hind-limb; day 28): 3.45±0.25 | number of CD31+ capillaries in ischemic limb muscle (ischemic hind-limb): 949±48 /mm2 | fraction of apoptotic cells (Annexin V-PE positive) (HUVECs [4]): 23.4%±1.1% | proliferation (cell number relative to unsupplemented growth media) (HUVECs [5]): 98.4%±0.7%

Native VEGF (from UniProt P15692 27-191) (ligand)
amount of phosphorylated VEGFR1 relative to untreated control (sandwich ELISA on HUVEC lysates, 100 ng/ml, 2 min) (fold of untreated control) (VEGF receptor 1): 1.31

CH3(CH2)14C(O)—VVAAKKKGKLTAQELVFLKVKGI-NH2 (Palmitoyl-VVAAKKKGKLTAQELVFLKVKGI-NH2; SMILES CCCCCCCCCCCCCCCC(=O)N[C@H](C(=O)N[C@H](C(=O)N[C@@H](C)C(=O)N[C@@H](C)C(=O)N[C@@H](CCCCN)C(=O)N[C@@H](CCCCN)C(=O)N[C@@H](CCCCN)C(=O)NCC(=O)N[C@@H](CCCCN)C(=O)N[C@@H](CC(C)C)C(=O)N[C@H](C(=O)N[C@@H](C)C(=O)N[C@@H](CCC(N)=O)C(=O)N[C@@H](CCC(=O)O)C(=O)N[C@@H](CC(C)C)C(=O)N[C@H](C(=O)N[C@@H](Cc1ccccc1)C(=O)N[C@@H](CC(C)C)C(=O)N[C@@H](CCCCN)C(=O)N[C@H](C(=O)N[C@@H](CCCCN)C(=O)NCC(=O)N[C@H](C(N)=O)[C@@H](C)CC)C(C)C)C(C)C)[C@@H](C)O)C(C)C)C(C)C) [mutant PA]
VEGFR2 phosphorylation level relative to untreated control [1]: 1.001±0.103 | blood vessels relative to the initial value [2]: 149%±8% | reduction in scratch wound size (denuded area) (HUVECs [3]): 30.0%±7.3% | LDPI perfusion ratio (ischemic/non-ischemic limb) (ischemic hind-limb; [6]): 0.42±0.05 | limb motor function score (ischemic hind-limb; day 21): 2.86±0.14 | tissue (limb) salvage score (ischemic hind-limb; day 21): 3.14±0.26 | LDPI perfusion ratio (ischemic/non-ischemic limb) (ischemic hind-limb; day 28): 0.48±0.05 | Rota Rod walking time prior to failure (ischemic hind-limb; day 28): 106.7 ± 17.6 s | limb motor function score (ischemic hind-limb; day 28): 3.29±0.18 | tissue (limb) salvage score (ischemic hind-limb; day 28): 3.43±0.37 | number of CD31+ capillaries in ischemic limb muscle (ischemic hind-limb): 954±81 /mm2 | fraction of apoptotic cells (Annexin V-PE positive) (HUVECs [4]): 24.2%±1.1% | proliferation (cell number relative to unsupplemented growth media) (HUVECs [5]): 101.8%±1.4%

B1: VEGF-PA (CH3(CH2)14C(O)-VVAAKKKGKLTWQELYQLKYKGI-NH2) (peptide)
peptide: Palmitoyl-VVAAKKKGKLTWQELYQLKYKGI-NH2
SMILES: CCCCCCCCCCCCCCCC(=O)N[C@H](C(=O)N[C@H](C(=O)N[C@@H](C)C(=O)N[C@@H](C)C(=O)N[C@@H](CCCCN)C(=O)N[C@@H](CCCCN)C(=O)N[C@@H](CCCCN)C(=O)NCC(=O)N[C@@H](CCCCN)C(=O)N[C@@H](CC(C)C)C(=O)N[C@H](C(=O)N[C@@H](Cc1c[nH]c2ccccc12)C(=O)N[C@@H](CCC(N)=O)C(=O)N[C@@H](CCC(=O)O)C(=O)N[C@@H](CC(C)C)C(=O)N[C@@H](Cc1ccc(O)cc1)C(=O)N[C@@H](CCC(N)=O)C(=O)N[C@@H](CC(C)C)C(=O)N[C@@H](CCCCN)C(=O)N[C@@H](Cc1ccc(O)cc1)C(=O)N[C@@H](CCCCN)C(=O)NCC(=O)N[C@H](C(N)=O)[C@@H](C)CC)[C@@H](C)O)C(C)C)C(C)C
amount of phosphorylated VEGFR1 relative to untreated control (sandwich ELISA on HUVEC lysates, 1 uM, 2 min) (VEGF receptor 1): 1.63 fold of untreated control

B2: mutant PA (CH3(CH2)14C(O)-VVAAKKKGKLTAQELVFLKVKGI-NH2) (peptide)
peptide: Palmitoyl-VVAAKKKGKLTAQELVFLKVKGI-NH2
SMILES: CCCCCCCCCCCCCCCC(=O)N[C@H](C(=O)N[C@H](C(=O)N[C@@H](C)C(=O)N[C@@H](C)C(=O)N[C@@H](CCCCN)C(=O)N[C@@H](CCCCN)C(=O)N[C@@H](CCCCN)C(=O)NCC(=O)N[C@@H](CCCCN)C(=O)N[C@@H](CC(C)C)C(=O)N[C@H](C(=O)N[C@@H](C)C(=O)N[C@@H](CCC(N)=O)C(=O)N[C@@H](CCC(=O)O)C(=O)N[C@@H](CC(C)C)C(=O)N[C@H](C(=O)N[C@@H](Cc1ccccc1)C(=O)N[C@@H](CC(C)C)C(=O)N[C@@H](CCCCN)C(=O)N[C@H](C(=O)N[C@@H](CCCCN)C(=O)NCC(=O)N[C@H](C(N)=O)[C@@H](C)CC)C(C)C)C(C)C)[C@@H](C)O)C(C)C)C(C)C
amount of phosphorylated VEGFR1 relative to untreated control (sandwich ELISA on HUVEC lysates, 1 uM, 2 min) (VEGF receptor 1): 0.931 fold of untreated control

Ac-KLTWQELYQLKYKGI-NH2 [VEGF peptide (Ac-KLTWQELYQLKYKGI-NH2)]
amount of phosphorylated VEGFR1 relative to untreated control (sandwich ELISA on HUVEC lysates, 1 uM, 2 min) (VEGF receptor 1): 1.33 fold of untreated control
